{
  "source": "patent US20080199484A1",
  "about": "“Use Of Cox-2 Inhibitor to Prevent T-Cell Anergy Induced By Dendritic Cell Therapy” (CEDARS-SINAI MEDICAL CENTER, priority 2003, published 2008)",
  "molecules": {"B1": {"name": "TRAIL: TNF-related apoptosis inducing ligand, obtained from PeproTech, used at 300 ng/ml (protein, UniProt P50591 1-281, looked up)", "Tumor necrosis factor ligand …": "MAMMEVQGGPSLGQTCVLIVIFTVLLQSLCVAVTYVYFTNELKQMQDKYSKSGIACFLKEDDSYWDPNDEESMNSPCWQVKWQLRQLVRKMILRTSEETISTVQEKQQNISPLVRERGPQRVAAHITGTRGRSNTLSSPNSKNEKALGRKINSWESSRSGHSFLSNLHLRNGELVIHEKGFYYIYSQTYFRFQEEIKENTKNDKQMVQYIYKYTSYPDPILLMKSARNSCWSKDAEYGLYSIYQGGIFELKENDRIFVSVTNEHLIDMDHEASFFGAFLVG"}, "B2": {"name": "recombinant IL-12: recombinant IL-12 supplementing DC-based glioma immunotherapy (Akasaki et al.) (protein, UniProt P43431 23-215; P43432 23-335, looked up)", "Interleukin-12 subunit alpha": "RVIPVSGPARCLSQSRNLLKTTDDMVKTAREKLKHYSCTAEDIDHEDITRDQTSTLKTCLPLELHKNESCLATRETSSTTRGSCLPPQKTSLMMTLCLGSIYEDLKMYQTEFQAINAALQNHNHQQIILDKGMLVAIDELMQSLNHNGETLRQKPPVGEADPYRVKMKLCILLHAFSTRVVTINRVMGYLSSA", "Interleukin-12 subunit beta": "MWELEKDVYVVEVDWTPDAPGETVNLTCDTPEEDDITWTSDQRHGVIGSGKTLTITVKEFLDAGQYTCHKGGETLSHSHLLLHKKENGIWSTEILKNFKNKTFLKCEAPNYSGRFTCSWLVQRNMDLKFNIKSSSSSPDSRAVTCGMASLSAEKVTLDQRDYEKYSVSCQEDVTCPTAEETLPIELALEARQQNKYENYSTSFFIRDIIKPDPPKNLQMKPLKNSQVEVSWEYPDSWSTPHSYFSLKFFVRIQRKKEKMKETEEGCNQKGAFLVEKTSTEVQCKGGNVCVQAQDRYYNSSCSKWACVPCRVRS"}},
  "key": {"[1]": {"system": "COX-2 protein in human glioma cells (U-87MG, LN-18, MG-377)", "assay": "Western blot of COX-2 protein expression in human glioma cells", "assay_type": "cell-based", "conditions": "glioma cells treated with TRAIL and TNF-α plus COX-2 inhibitor (NS-398 10 μM); FIG. 1A", "method": "Samples were extracted with buffer containing 1% Triton X-100, 150 mM NaCl, 50 mM Tris (hydroxymethyl aminomethane) (pH 7.5) and 1 mM phenylmethylsulfonyl fluoride (PMSF). The cell debris was removed by centrifugation at 14,000 g for 20 minutes and the supernatant was subjected to SDS polyacrylamide gel electrophoresis (SDS-PAGE) and loaded on a 7.5% polyacrylamide gel (obtained from Bio-Rad; Hercules, Calif.). Electrophoretic transfer to nitrocellulose membranes (obtained from Amersham Biosciences; Piscataway, N.J.) was followed by immunoblotting with a mouse IgG1 anti-COX-2 antibody (obtained from Phamingen) or a mouse IgG1 anti-beta-tublin (obtained from Sigma). This was followed by hybridization with a peroxidase-linked anti-mouse IgG antibody (obtained from Amersham Bioscience). The signal was detected by chemiluminescence using ECL detection system (obtained from Amersham Bioscience) and Hyperfilm ECL (obtained from Amersham Bioscience).\nExpression of COX-2 protein in human glioma cells was examined by Western blot (FIG. 1A)."}, "[2]": {"system": "PGE2 in the supernatants of glioma cell cultures", "assay": "PGE2 ELISA in supernatants of glioma cell cultures", "assay_type": "cell-based, human", "conditions": "for PGE2 in the culture supernatants (ELISA): FIG. 1B", "procedure": "Tumor cells, including U-87MG human glioma cell line (obtained from American Type Culture Collection; Rockville, Md.), LN-18 cell line (obtained from Dr. Erwin Van Meier, Emory University; Atlanta, Ga.), and primary cultured human glioma MG-377 (obtained from surgical specimen of a glioblastoma patient at neurosurgical institute, Cedars-Sinai Medical Center; Los Angeles, Calif.), were maintained at 37° C. and 5% CO2 in Dulbecco's Modified Eagles Medium (available from Sigma; St. Louis, Mo.; hereinafter “DMEM”) supplemented with 10% heat-inactivated fetal bovine serum (available from Sigma; hereinafter “[…]”), 2 mM […], 10 mM HEPES (available from Sigma), 100 U/ml penicillin (available from Sigma), 100 μg/ml streptomycin (available from Sigma). 100% di-methyl sulfonyl oxygen (available from Sigma; hereinafter “DMSO”) dissolved NS-398 (selective COX-2 inhibitor; obtained from Cayman Chemical) was used at concentrations of 10 μM. Recombinant human TNF-α (obtained from BioSource International; Camarillo, Calif.) was used at a concentration of 20 ng/ml and TRAIL (obtained from PeproTech Inc.; Rocky Hill, N.J.) was used at a concentration of 300 ng/ml.\nGlioma cells were plated to 6-well culture plate at density of 1×10^6 cells/well/2 ml with fresh X-Vivo 15 medium. Several glioma cells were pre-treated with the COX-2 inhibitor NS-398 for 8 hours. The NS-398 treated glioma cells were cultured with TNF-α, TRAIL, and NS-398. The other cells were cultured with TNF-α and TRAIL. After 24 hours culture with these agents, iDCs were put into the wells at the density of 3×10^5 cells/well, and were co-cultured with glioma cells for 16 hours. Several iDCs were cultured with TNF-α/TRAIL or TNF-α/TRAIL/NS-398 without tumor cells. Human glioma cell lines (U-87MG and LN-18) and stable transfectants (LN-18-COX-2 and LN-18-EP) were co-cultured with healthy donor iDCs, and MG-377 were co-cultured with autologous iDCs. […]\nPGE2 in the culture supernatants was measured by ELISA (FIG. 1B)."}, "[3]": {"system": "glioma cells (U-87MG, LN-18, MG-377); iDCs", "assay_type": "cell-based", "conditions": "NS-398 treatment; data not shown"}, "CD11c+ DCs": {"system": "CD11c+ DCs", "assay": "Flow cytometric analysis of DC surface and maturation markers (CD86, HLA-DR, CD83, CCR7)", "assay_type": "cell-based, human", "conditions": "FIG. 3; for CD83 and CCR7 expression (maturation markers) / CD86 expression, geometric mean: single-cultured iDCs; for CD83 and CCR7 expression (maturation markers): 16 hours co-stimulation, TNF-α 20 ng/ml; for CD86 expression, geometric mean: 16 hours, TRAIL 300 ng/ml and/or PGE2 0.1 μM, untreated iDCs: 647", "procedure": "Human PBMCs were separated from peripheral blood of a healthy donor and the aforementioned glioblastoma patient using Ficoll-Hypaque density centrifugation. PBMC were resuspended in X-Vivo 15 serum-free medium (obtained from Cambrex; Santa Rosa, Calif.) and allowed to adhere to 24-well culture plate at 37° C. The non-adherent cells were removed after 2 hours. CD4+ and CD8+ cells were isolated from these non-adherent cells with MiniMACS cell separation unit (obtained from Milenyi Biotec, Auburn, Calif.) and microbeads conjugated mouse monoclonal anti-human CD4 and CD8 antibody (obtained from Milenyi Biotec). CD4+ and CD8+ cells were used for mixed lymphocyte reaction (MLR) described later. The adherent cells were subsequently cultured in X-Vivo 15 serum-free medium. 20 ng/ml GM-CSF (obtained from BioSource International) and 10 ng/ml IL-4 (obtained from BioSource International) were added to the cultures on days 0, 2, and 4. After 7-day culture, the floating cells were transferred to fresh plates with fresh X-Vivo 15 medium as immature DCs (iDCs). Several iDCs were cultured with 300 ng/ml TRAIL and/or 0.1 μM PGE2 (obtained from Sigma) and/or 20 ng/ml TNF-α for 16 hours (TRAIL-DCs, PGE2-DCs, TRAIL/PGE2-DCs, TRAIL/TNF-α-DCs, TRAIL/TNF-α/PGE2-DCs).\n(§1) Glioma cells were plated to 6-well culture plate at density of 1×10^6 cells/well/2 ml with fresh X-Vivo 15 medium. Several glioma cells were pre-treated with the COX-2 inhibitor NS-398 for 8 hours. The NS-398 treated glioma cells were cultured with TNF-α, TRAIL, and NS-398. The other cells were cultured with TNF-α and TRAIL. After 24 hours culture with these agents, iDCs were put into the wells at the density of 3×10^5 cells/well, and were co-cultured with glioma cells for 16 hours. Several iDCs were cultured with TNF-α/TRAIL or TNF-α/TRAIL/NS-398 without tumor cells. Human glioma cell lines (U-87MG and LN-18) and stable transfectants (LN-18-COX-2 and LN-18-EP) were co-cultured with healthy donor iDCs, and MG-377 were co-cultured with autologous iDCs.\nMonoclonal mouse anti-human antibodies of PE-conjugated CD83, CD86, HLA-DR (obtained from Phamingen), FITC-conjugated CD11c (obtained from BioSource International), and unconjugated CCR7 (R&D Systems; Minneapolis, Minn.) were used for cell surface analysis of DCs. PE-conjugated F(ab′)2 goat anti-mouse immunoglobulins (obtained from DAKO Cytomation; Carpinteria, Calif.) was used for secondary antibody. Mouse IgG1 and IgG2a (obtained from Phamingen) were used for isotype control. DCs were stained with anti-CD86, HLA-DR, CD83, and CCR7 antibodies before staining with anti-CD11c antibody, and CD11c+DCs were isolated with MiniMACS cell separation unit and microbeads-conjugated anti-FITC antibody (obtained from Milenyi Biotec).\nDCs were stained with anti-CD86, HLA-DR, CD83, CCR7, and CD11c antibody. CD11c+ DCs were isolated with cell separation unit and microbease-conjugated anti-FITC antibody."}, "isolated CD11c+ DCs": {"system": "isolated CD11c+ DCs", "assay": "IL-10 and IL-12p70 ELISA in supernatants of DC cultures", "assay_type": "cell-based, human", "conditions": "FIG. 4", "procedure": "as §1\nPGE2 ELISA kit (obtained from Cyman Chemical; Ann Arbor, Mich.) was used according to the manufacture's protocol for measurement in the supernatants of glioma cell cultures. IL-10 and IL-12 p70 ELISA kits (obtained from Phamingen) were used according to the manufacture's protocols for measurement in the supernatants of cultures of tumor cells or isolated CD11c+ DCs. CD40-CD40L interaction is a main trigger of IL-12 production by DCs (Cella, M. et al., “Ligation of CD40 on dendritic cells triggers production of high levels of interleukin-12 and enhances T cell stimulatory capacity: T-T help via APC activation,” J. Exp. Med., Vol. 184, pp. 747-752 (1996)). Based on this evidence, cells were co-cultured with NIH-CD40L cells (obtained from Dr. Gang Zeng, National Cancer Institute, N11, MD; the ratio of NIH-CD40L:DCs=1:1) for 16 hours, and the supernatants of co-cultures were used as the samples. The lower detection limit of each kit was 7.8 pg/ml. All samples and standards were run in duplicate.\nIL-10 and IL-12p70 in the supernatants of cultures were measured by ELISA, and the results were statistically compared with NS-398(−) single-cultured DCs (FIG. 4)."}, "CD4+ T cells": {"system": "CD4+ T cells", "assay": "Mixed lymphocyte reaction and IFN-γ/IL-10 ELISPOT (Th cell polarization)", "assay_type": "cell-based, human"}, "[4]": {"system": "COX-2 overexpressing glioma cells", "conditions": "supplementing with recombinant IL-12, in the absence of COX-2 inhibitor; cited from earlier work"}, "[5]": {"conditions": "DCs co-cultured with NS-398 treated glioma"}, "[6]": {"conditions": "single-cultured DCs, compared with NS-398(−) single-cultured DCs"}},
  "data": [
    {"molecule": "CS(=O)(=O)Nc1ccc([N+](=O)[O-])cc1OC1CCCCC1", "note": "[NS-398]", "values": [
      {"measurement": "COX-2 expression (Western blot)", "setting": "[1]", "value": "did not extinguish the COX-2 expression"},
      {"measurement": "PGE2 in the culture supernatants (ELISA)", "setting": "[2]; LN-18, each group", "value": "no significant difference"},
      {"measurement": "PGE2 produced by the COX-2 transfectant", "setting": "[2]; LN-18-COX-2 stable transfectant", "value": "suppressed the PGE2"},
      {"measurement": "PGE2 in the culture supernatants (ELISA)", "setting": "[2]; U-87MG and MG-377, addition of NS-398 10 μM to TRAIL/TNF-α cultures, p<0.01", "value": "significantly reduced"},
      {"measurement": "death ratio in each glioma", "setting": "[3]", "value": "did not cause a change of the death ratio"},
      {"measurement": "geometric means of the expressing markers (CD86, HLA-DR, CD83, CCR7)", "setting": "CD11c+ DCs; DCs co-cultured with glioma cells, with or without NS-398 treatment", "value": "no statistical difference"},
      {"measurement": "IL-10 (ELISA)", "setting": "isolated CD11c+ DCs; [5]", "value": "downregulation of IL-10"},
      {"measurement": "IL-12 (ELISA)", "setting": "isolated CD11c+ DCs; [5]", "value": "augmentation of IL-12"},
      {"measurement": "IL-10 production (ELISA)", "setting": "isolated CD11c+ DCs; [6]", "value": "did not effect to change"},
      {"measurement": "IL-12p70 production (ELISA)", "setting": "isolated CD11c+ DCs; [6]", "value": "did not effect to change"},
      {"measurement": "DC-mediated Th cell polarization", "setting": "CD4+ T cells; DCs co-cultured with COX-2-inhibited glioma cells, FIG. 5A-F", "value": "bias toward Th1"},
      {"measurement": "Th cell polarization by tumor-infiltrating DCs", "setting": "CD4+ T cells; LN-18-COX-2 stable transfectant with COX-2 inhibitor", "value": "polarizing the Th cells toward Th1"},
      {"measurement": "IL-10 expression (ELISPOT)", "setting": "CD4+ T cells; co-culture of primary glioma (MG-377) with autologous DCs, FIG. 5E", "value": "decrease in IL-10"},
      {"measurement": "interferon-gamma expression (ELISPOT)", "setting": "CD4+ T cells; co-culture of primary glioma (MG-377) with autologous DCs, FIG. 5F", "value": "decrease in interferon-gamma"},
      {"measurement": "IL-10 expression (ELISPOT)", "setting": "CD4+ T cells; co-cultured DCs and glioma, FIG. 5A, 5B", "value": "decrease in IL-10 expression"},
      {"measurement": "interferon-gamma expression (ELISPOT)", "setting": "CD4+ T cells; co-cultured DCs and glioma, FIG. 5C, 5D", "value": "increase in interferon-gamma expression"}
    ]},
    {"molecule": "CCCCC[C@H](O)/C=C/[C@H]1[C@H](O)CC(=O)[C@@H]1C/C=C\\CCCC(=O)O", "note": "[PGE2, ProstaglandinE2]", "values": [
      {"measurement": "CD83 and CCR7 expression (maturation markers)", "setting": "CD11c+ DCs", "value": "did not induce CD83 or CCR7 expression"},
      {"measurement": "CD86 expression, geometric mean", "setting": "CD11c+ DCs", "value": 2779},
      {"measurement": "Th cell polarization by tumor-infiltrating DCs", "setting": "CD4+ T cells; soluble PGE2 added into culture supernatant of LN-18-EP", "value": "same effect on Th2 polarization as LN-18-COX-2"}
    ]},
    {"molecule": "TNF-α", "values": [
      {"measurement": "CD83 and CCR7 expression (maturation markers)", "setting": "CD11c+ DCs", "value": "induced both CD83 and CCR7 expressions"}
    ]},
    {"molecule": "B1", "values": [
      {"measurement": "CD83 and CCR7 expression (maturation markers)", "setting": "CD11c+ DCs", "value": "did not induce CD83 or CCR7 expression"},
      {"measurement": "CD86 expression, geometric mean", "setting": "CD11c+ DCs", "value": 1086}
    ]},
    {"molecule": "B2", "values": [
      {"measurement": "therapeutic effect of DC-based glioma immunotherapy", "setting": "[4]", "value": "potent therapeutic effect"}
    ]}
  ]
}
